Data taken from patent US9234017B2, “Aquaporin-4 peptide compositions and methods of use thereof” (The Regents of the University of California, priority 2012, dated 2016).
Like-named read-outs stand apart in the source and are kept apart here.

Columns and labels:
Assay type in all cases: cell-based, human
[1] = system: peripheral blood mononuclear cells (PBMC); assay: PBMC proliferation by [3H]thymidine incorporation, primary cultures; settings: for proliferative responses of NMO patients to individual AQP4 peptides: peptides 10 μg/ml, 6 d, [3H]thymidine, FIG. 1B
[2] = system: T cells from NMO patients; assay: T cell proliferation by CFSE dilution (cell division index); settings: for proliferative T cell response to individual AQP4 peptides: NMO patients, CFSE dilution, peptides 10 μg/ml, 10 d, FIG. 1D
[3] = system: AQP4 p61-80-specific T cells; assay: Epitope mapping: recall proliferation of AQP4 p61-80-reactive T cells to truncated peptides; settings: NMO patients, peptides 10 μg/ml, irradiated autologous APC, [3H]thymidine after 3 d, FIG. 3A, 3B
[4] = system: T cells initially stimulated with AQP4 p63-76 or ABC-TP
[5] = system: T cells initially stimulated with rhAQP4; assay: Antigen recall proliferation after initial stimulation with rhAQP4
[6] = system: CD4+CFSElow proliferating T cells; assay: Intracellular IL-17 and IFN-γ staining of proliferating antigen-specific CD4+ T cells; settings: for frequencies of IL-17+ single- and IL-17+IFN-γ+ double-positive (Th17) cells: NMO patients in comparison to HC, PMA/Ionomycin 5 h, FIG. 4A, B
Method: (§1) Single-cell suspensions were incubated with human serum to prevent nonspecific antibody binding, then stained with anti-CD3, -CD4, -CD8, -CD25, -MHC Class II, -CD40, -CD80, and -CD86 (eBioscience and BD Bioscience). Intracellular cytokine production by CD4^+ T cells and APC was analyzed by monitoring the expression of IFN-γ, IL-17, IL-6, IL-1β and IL-10 (1:100) (eBioscience). Foxp3 staining was performed according to the manufacturer's protocol (eBioscience). For intracellular cytokine staining, T cells were stimulated with phorbol 12-myristate 13-acetate (PMA, 50 ng/ml) plus ionomycin (500 ng/ml) in the presence of GolgiStop (1 μl/ml) (BD Biosciences). CD14^+ cells were stimulated with LPS (1 μg/ml; Sigma-Aldrich) for 4 or 20 h in the presence of GolgiStop. Cells were analyzed by flow cytometry on a FACS Canto flow cytometer (BD Biosciences).
FIG. 4A-4D. […] PBMC were stained with CFSE and cultured for 10 d with AQP4 peptides (10 μg/ml) or rhAQP4 (5 μg/ml). (Panel A) CD4^+CFSE^low proliferating T cells were analyzed for IL-17 and IFN-γ production by intracellular staining after stimulation with PMA/Ionomycin for 5 h. (Panel B) Frequencies of IL17^+IFN-γ^−, IL17^+IFN-γ^+ and IL17^−IFN-γ^+ were examined among proliferating p61-80-specific CD4^+ T cells (n=8 NMO and n=5 HC), p156-170-specific CD4^+ T cells (n=6 NMO and n=3 HC) and rhAQP4-specific CD4^+ T cells (n=6 NMO and n=5 HC). Frequencies of IL-17- and IFN-γ-single positive T cells were used to calculate Th17/Th1 ratio. (Panel C) PBMC were examined by FACS for expression of Treg markers including CD4, CD127 and CD25. (Panel D) CFSE-labeled PBMC were cultured for 10 d with AQP4 p61-80 (10 μg/ml) or rhAQP4 (5 μg/ml). Proliferating CD4^+ T cells (CDI>2) were examined by FACS for expression of CD25^high, defined as the top half of CD25^+ cells, and Foxp3 (n=8 NMO p61-80, n=6 HC p61-80, n=7 NMO rhAQP4 and n=5 HC rhAQP4). Box-and-whisker plots include the median, distribution and range. **P<0.01 Mann-Whitney U test.

[7] = system: proliferating CD4+ T cells; assay: Treg (CD25high Foxp3) frequency among proliferating antigen-specific CD4+ T cells; settings: NMO patients versus HC, FIG. 4D
Method: as §1
FIG. 4A-4D. […] PBMC were stained with CFSE and cultured for 10 d with AQP4 peptides (10 μg/ml) or rhAQP4 (5 μg/ml). (Panel A) CD4^+CFSE^low proliferating T cells were analyzed for IL-17 and IFN-γ production by intracellular staining after stimulation with PMA/Ionomycin for 5 h. (Panel B) Frequencies of IL17^+IFN-γ^−, IL17^+IFN-γ^+ and IL17^−IFN-γ^+ were examined among proliferating p61-80-specific CD4^+ T cells (n=8 NMO and n=5 HC), p156-170-specific CD4^+ T cells (n=6 NMO and n=3 HC) and rhAQP4-specific CD4^+ T cells (n=6 NMO and n=5 HC). […]

[8] = PBMC from 4 NMO patients, primed 10 d at 10 μg/ml, [3H]thymidine after 3 d, FIG. 3E

Substance: RFKEAFSKAAQQTKGSYMEV (synthetic poypeptide) [p261-280]
- proliferative responses of NMO patients to individual AQP4 peptides [1]: not detected
- proliferative T cell response to individual AQP4 peptides [2]: T cell responses were observed

Substance: p21-40: synthetic overlapping AQP4 20-mer peptide, amino acids 21-40 of human AQP4 (NIMVAFKGVWTQAFWKAVTA; UniProt P55087 21-40, looked up, fragment)
- proliferative responses of NMO patients to individual AQP4 peptides [1]: T cell determinants were identified
- proliferative T cell response to individual AQP4 peptides [2]: T cell responses were observed

Substance: GTEKPLPVDMVLISLCFG (synthetic poypeptide) [p61-78]
- proliferation of AQP4 p61-80-specific T cells to truncated peptides [3]: proliferated

Substance: EKPLPVDMVLISLC (listed as Homo sapiens) [p63-76]
- recall proliferation of ABC-TP p204-217-primed T cells [4, 8]: vice versa
- proliferation of AQP4 p61-80-specific T cells to truncated peptides [3]: nearly as efficiently

Substance: GTEKPLPVDMVLIS (synthetic poypeptide) [p61-74]
- proliferation of AQP4 p61-80-specific T cells to truncated peptides [3]: not

Substance: FIILPVSMVLISLV [ABC-TP p204-217]
- recall proliferation of AQP4 p63-76-primed T cells [4]: proliferated
- proliferation of T cells from NMO patients [2]: proliferated significantly

Substance: p61-80: peptide of amino acids position 61 to position 80 of human AQP-4 protein sequence (GTEKPLPVDMVLISLCFGLS)
- proliferative responses of NMO patients to individual AQP4 peptides [1]: T cell determinants were identified
- immunodominance among peptides examined [5]: clearly immunodominant
- frequencies of IL-17+ single- and IL-17+IFN-γ+ double-positive (Th17) cells [6]: significantly higher frequencies
- Th17/Th1 ratio ([6]; NMO patients versus HC): elevated
- proportion of CD4+ T cells that responded ([2]; NMO patients versus HC, FIG. 1E): higher in NMO patients than HC
- proliferative T cell response to individual AQP4 peptides [2]: robust proliferative T cell response

Substance: tetanus toxoid: Tetanus toxoid obtained from List Biological Laboratories, Inc. [reference compound]
- response to tetanus toxoid, HC compared with NMO patients ([1]; lymphocytes from healthy controls): comparable responses

Substance: AGHGLLVELIITFQL (synthetic poypeptide) [p156-170]
- proliferative responses of NMO patients to individual AQP4 peptides [1]: T cell determinants were identified
- recall proliferation of ABC-TP p204-217-primed T cells [4, 8]: not observed
- recall proliferation of AQP4 p63-76-primed T cells [4, 8]: not observed
- frequencies of IL-17+ single- and IL-17+IFN-γ+ double-positive (Th17) cells [6]: No Th17 bias
- proliferative T cell response to individual AQP4 peptides [2]: T cell responses were observed

Substance: GTEKPLPVDMVL (synthetic poypeptide) [p61-72]
- proliferation of AQP4 p61-80-specific T cells to truncated peptides [3]: not

Substance: PVDMVLISLCFGLS (synthetic poypeptide) [p67-80]
- proliferation of AQP4 p61-80-specific T cells to truncated peptides [3]: less efficiently than p63-80

Substance: GILYLVTPPSVVGGLGVTMV (synthetic poypeptide) [p131-150]
- proliferative responses of NMO patients to individual AQP4 peptides [1]: T cell determinants were identified

Substance: PLPVDMVLISLCFGLS (synthetic poypeptide) [p65-80]
- proliferation of AQP4 p61-80-specific T cells to truncated peptides [3]: less efficiently than p63-80

Substance: GTEKPLPVDMVLISLC (synthetic poypeptide) [p61-76]
- proliferation of AQP4 p61-80-specific T cells to truncated peptides [3]: proliferated

Substance: DMVLISLCFGLS (synthetic poypeptide) [p69-80]
- proliferation of AQP4 p61-80-specific T cells to truncated peptides [3]: less efficiently than p63-80

Substance: p11-30: synthetic overlapping AQP4 20-mer peptide, amino acids 11-30 of human AQP4 (GKCGPLCTRENIMVAFKGVW; UniProt P55087 11-30, looked up, fragment)
- proliferative responses of NMO patients to individual AQP4 peptides [1]: not detected
- proliferative T cell response to individual AQP4 peptides [2]: T cell responses were observed

Substance: rhAQP4: Full length recombinant human AQP4 (1-323) expressed in Pichia pastoris
- frequency of Treg among antigen-specific T cells [7]: significantly reduced frequency
- frequencies of IL-17+ single- and IL-17+IFN-γ+ double-positive (Th17) cells [6]: not significant

Substance: SMNPARSFGPAVIMGNWENH (synthetic poypeptide) [p211-230]
- proliferative responses of NMO patients to individual AQP4 peptides [1]: T cell determinants were identified
